“And” between values parts separate entries of the source, which are not always exact repeats. Identical values can stand only once.
Each sequence was assayed on MDA-MB-231 (assay: shRNA barcode abundance ratio t_end/t_zero (depletion over 4 weeks of proliferation) (log2 ratio); higher = less depletion (weaker anti-proliferative effect of the shRNA)). Conditions: time after t zero 28 days.
Protocol: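 Pooled lentiviral negative-selection screen of 305 pGIPZ shRNAs (Open Biosystems V2LHS clones; the 21-nt half-hairpin sense stem is embedded in a mir-30 scaffold) in MDA-MB-231 breast carcinoma cells, infected at MOI 0.3 with 0.5 ug/ml puromycin selection. Barcode abundance was read on barcode tiling microarrays (six 25-nt probes per 60-nt barcode) at t_zero (5 days post-infection) and t_end (33 days; 28 days of culture after t_zero). Values are median-normalised t_end/t_zero signal ratios, averaged over the tiling probes that passed a 10-fold background filter, from three biological replicates.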

Compared with “CCTGCCCATTAGAGAAGTATT (targeted gene: VHL)”, “GGGAGGTAAATCAACATATAT (targeted gene: MSH2)” is higher in “shRNA barcode abundance ratio t end/t zero (log2)” value: -0.221 for the first, 0.109 for the second.

Going from “GCTTAGAACTTTAAGCAACAA (targeted gene: TNF)” to “CCAGAATCTCTGGGAATATAA (targeted gene: BFAR)”, the “shRNA barcode abundance ratio t end/t zero (log2)” value rises from -1.56 to -0.109.

Compared with “CCTGTTGGTGTCTTTATTATT (targeted gene: CDH1)”, “CCAGAGTAACTCTAGTCAGTT (targeted gene: NUP62)” is lower in “shRNA barcode abundance ratio t end/t zero (log2)” value: 0.164 for the first, -2.05 for the second.

Compared with “CCAGCTGTTTATGCATAGATA (targeted gene: CXCR4)”, “GCCCTGTACTTTAACCCAATT (targeted gene: BFAR)” is lower in “shRNA barcode abundance ratio t end/t zero (log2)” value: 1.87 for the first, 0.0378 for the second.

Going from “GCAGCTTCAGGTTTACTCAAA (targeted gene: CD28)” to “CCTTAGCAATGTCTTAGGAAA (targeted gene: BIRC5)”, the “shRNA barcode abundance ratio t end/t zero (log2)” value falls from 0.127 to -2.27.

First: AGAGAGAACTGCTCAGTAATT (targeted gene: BRE)
Second: GCCACATGTCTTTGCTTGATA (targeted gene: NAIP)
The “shRNA barcode abundance ratio t end/t zero (log2)” value of the first is lower: 0.237 for the first, 0.453 for the second.

First: CAGCTTTCAGTCAGATGTATA (targeted gene: BRAF)
Second: CGACTCTATCAGGGTATAAAT (targeted gene: MSH2)
The “shRNA barcode abundance ratio t end/t zero (log2)” value of the first is higher: 0.489 for the first, 0.0312 for the second.

First: CCTCCCTCTCAGAACCAATAA (targeted gene: DDAH2)
Second: GCCTACAGCTGCCTCCTAGAA (targeted gene: ANXA4)
The “shRNA barcode abundance ratio t end/t zero (log2)” value of the first is lower: -0.269 for the first, 0.417 for the second.

Compared with “GGCCCAAATTATCAAGCTAAT (targeted gene: CRYAB)”, “CGAGGCAACTTGAACTCAGAA (targeted gene: IER3)” is higher in “shRNA barcode abundance ratio t end/t zero (log2)” value: -0.348 for the first, 0.272 for the second.

“GCCTCACCAGTCCATTATTAT (targeted gene: BIRC6)” and “AGACATAAAGCCATCTCTTAT (targeted gene: NME5)” are within 0.2 log units of each other in “shRNA barcode abundance ratio t end/t zero (log2)” value: 0.259 for the first, 0.11 for the second.

First: CCCTGAGACCATATCCTTAAA (targeted gene: OPA1)
Second: ACTTCAGAAATGGCACGATAA (targeted gene: AATF)
The “shRNA barcode abundance ratio t end/t zero (log2)” value of the first is lower: -0.115 for the first, 0.24 for the second.

“GCTAAGAGATTCGCCTTAAAT (targeted gene: SOCS3)” and “CCAGAAGAGCCTATTACATCT (targeted gene: SOCS3)” are within 0.2 log units of each other in “shRNA barcode abundance ratio t end/t zero (log2)” value: 0.308 for the first, 0.25 for the second.

“GAGGATTATGGCTAACAAGAA (targeted gene: MCL1)” and “GCTCAGTGAGCCCATGGAATT (targeted gene: RELA)” are within 0.2 log units of each other in “shRNA barcode abundance ratio t end/t zero (log2)” value: 0.27 for the first, 0.332 for the second.

Going from “CCTCAGATTGTTGTTGTTAAT (targeted gene: IL6)” to “CGGAGAGTTATCCTGATAAAT (targeted gene: SFRP1)”, the “shRNA barcode abundance ratio t end/t zero (log2)” value falls from 0.311 to -0.114.

Compared with “GCATGTTATGTTGTTCTTATT (targeted gene: XIAP)”, “GGTGACTATACAGTCATTTAA (targeted gene: ATM)” is lower in “shRNA barcode abundance ratio t end/t zero (log2)” value: 0.25 for the first, -0.167 for the second.

Going from “ACGCTCTGTGGCCAGTGTAAA (targeted gene: SULF2)” to “GCCCTGATTGTGTATATTCAT (targeted gene: BCL2)”, the “shRNA barcode abundance ratio t end/t zero (log2)” value falls from 0.249 to 0.006.

Going from “TCTGAGGAAGAGATCATCAAA (targeted gene: PEA15)” to “GGCCAGAATATCATTGTCATA (targeted gene: RBKS)”, the “shRNA barcode abundance ratio t end/t zero (log2)” value rises from -0.849 to -0.309.

Going from “CCGAATCCGCATGACTCATAA (targeted gene: HDAC1)” to “GGGCAAGTTTCCATCATCTAT (targeted gene: TDGF1)”, the “shRNA barcode abundance ratio t end/t zero (log2)” value falls from 1.63 to -0.11.

Going from “CGGTTTGCTGAGGAGAAAGAA (targeted gene: AVEN)” to “GCGCACAGGCTTTATCGAGAA (targeted gene: IGFBP3)”, the “shRNA barcode abundance ratio t end/t zero (log2)” value falls from 0.241 to -0.0187.

“GCTATACGAATGGGATTTGAT (targeted gene: BIRC8)” and “GGCCCAAGGTCCAAGTAGAAT (targeted gene: HSPA8)” are within 0.2 log units of each other in “shRNA barcode abundance ratio t end/t zero (log2)” value: 0.211 for the first, 0.332 for the second.

Compared with “GATGATAGTATTGAAGCAGAT (targeted gene: BNIP2)”, “GGCCCAGTGTTTCTTCTGCTT (targeted gene: BIRC5)” is lower in “shRNA barcode abundance ratio t end/t zero (log2)” value: 0.366 for the first, -0.948 for the second.

“GCACAAGCAGCTGATCCGATT (targeted gene: IL4)” and “CCACGCGACATCCAATCCATA (targeted gene: IL3)” are within 0.2 log units of each other in “shRNA barcode abundance ratio t end/t zero (log2)” value: -0.0177 for the first, -0.0678 for the second.

First: GCATGTAATAGAGTGTGCTAA (targeted gene: MSH2)
Second: ACCTGCAGAATAATAAAGTCA (targeted gene: S100A8)
The “shRNA barcode abundance ratio t end/t zero (log2)” value of the first is higher: 1.01 for the first, -0.295 for the second.

“GCTGAAGTACAGGACAATTAT (targeted gene: TAX1BP1)” and “CCTGACCTCCCTCTAATTTAT (targeted gene: IL10)” are within 0.2 log units of each other in “shRNA barcode abundance ratio t end/t zero (log2)” value: 0.181 for the first, 0.309 for the second.

Going from “CCAAGTAGACTCACTCCTTAA (targeted gene: BAG4)” to “CCTGGGCATTCTTGTTTCAAT (targeted gene: IL1A)”, the “shRNA barcode abundance ratio t end/t zero (log2)” value falls from -0.102 to -0.328.

First: CGCAAGAATCTGTTCCTAGTG (targeted gene: FAIM3)
Second: CCAGATTTCTTACCTACCATA (targeted gene: BIRC2)
The “shRNA barcode abundance ratio t end/t zero (log2)” value of the first is lower: -0.255 for the first, 0.213 for the second.

First: GCGTCTGGCCTCCTTCTATGA (targeted gene: BIRC7)
Second: GCAGATTCAAGTCAATCTGAA (targeted gene: NFIA)
The “shRNA barcode abundance ratio t end/t zero (log2)” value of the first is higher: 0.556 for the first, 0.355 for the second.

Compared with “CCCTTCTTTGGGAATATAATT (targeted gene: CBX4)”, “CCATAGCAAGGCCTAATGTTA (targeted gene: FANCF)” is lower in “shRNA barcode abundance ratio t end/t zero (log2)” value: 0.505 for the first, 0.00383 for the second.

“GGCAGGTATTTGACATATTAA (targeted gene: NFKB1)” and “GCTCTGTACTTCAACCCAATT (targeted gene: BFAR)” are within 0.2 log units of each other in “shRNA barcode abundance ratio t end/t zero (log2)” value: 0.217 for the first, 0.0174 for the second.

“CCTGTTATCAATCTGCTAAAT (targeted gene: FOXO1)” and “GGGAATCCAGTGTGTGAAGAA (targeted gene: RELA)” are within 0.2 log units of each other in “shRNA barcode abundance ratio t end/t zero (log2)” value: 0.0156 for the first, 0.121 for the second.

“GCCGAAGATTTCACAGTCAAA (targeted gene: IGF1R)” and “GGCCTTGGAACTGATGAAGAT (targeted gene: ANXA1)” are within 0.2 log units of each other in “shRNA barcode abundance ratio t end/t zero (log2)” value: 0.225 for the first, 0.259 for the second.

“CCAATTCAAGTGATCCGCAAA (targeted gene: BAG3)” and “CCTTGGAAAGGATGAACAAAT (targeted gene: TOPORS)” are within 0.2 log units of each other in “shRNA barcode abundance ratio t end/t zero (log2)” value: 0.175 for the first, 0.154 for the second.

“GCTGCCAAACTTCAGATAATA (targeted gene: NT5C3)” and “GCTGAGGAGGCTCAAGTTAAA (targeted gene: TGFB1)” are within 0.2 log units of each other in “shRNA barcode abundance ratio t end/t zero (log2)” value: 0.163 for the first, 0.277 for the second.

“ACTTACACTTAGAAATTAAAT (targeted gene: XIAP)” and “CGGATTAGGGCATTTGAGAAA (targeted gene: IL7)” are within 0.2 log units of each other in “shRNA barcode abundance ratio t end/t zero (log2)” value: 0.473 for the first, 0.319 for the second.

“GCTCTTCCACTCAGGTGAGAA (targeted gene: LOC284939)” and “GCGTCGTTAATTTATTTCTTA (targeted gene: IER3)” are within 0.2 log units of each other in “shRNA barcode abundance ratio t end/t zero (log2)” value: -0.0337 for the first, 0.159 for the second.

Going from “GGAAATTCTTTCACTTCATTA (targeted gene: MCL1)” to “GCTGTGAGTTCTGATAGGAAT (targeted gene: XIAP)”, the “shRNA barcode abundance ratio t end/t zero (log2)” value falls from 0.208 to -0.186.

Compared with “GGGAATGATCAGATTCCTTTA (targeted gene: BFAR)”, “GCTCAACAGATCCAATTTCAT (targeted gene: RBKS)” is lower in “shRNA barcode abundance ratio t end/t zero (log2)” value: 0.171 for the first, -0.0517 for the second.

Going from “GGAAGTGATCCAAATGTTAAA (targeted gene: BARD1)” to “CCGAACATTAGGAATTGTTTA (targeted gene: ACVR1)”, the “shRNA barcode abundance ratio t end/t zero (log2)” value rises from -2.23 to 0.264.

“AGGCCTAGAGGTAACCAATAA (targeted gene: PRDX2)” and “GGATATTGAACAGAGTATTAA (targeted gene: ANXA4)” are within 0.2 log units of each other in “shRNA barcode abundance ratio t end/t zero (log2)” value: -0.0855 for the first, -0.0211 for the second.

“GCGCAAGAAATCCCGGTATAA (targeted gene: VEGFA)” and “GGCCCATACCTTCAAATATTA (targeted gene: NFKB1)” are within 0.2 log units of each other in “shRNA barcode abundance ratio t end/t zero (log2)” value: 0.382 for the first, 0.381 for the second.

“TGGGAAGAACTTTAAGGATAT (targeted gene: SORT1)” and “GCATCTTCTTCGGTGAAATAT (targeted gene: BNIP2)” are within 0.2 log units of each other in “shRNA barcode abundance ratio t end/t zero (log2)” value: -0.167 for the first, -0.0165 for the second.

Going from “GGAACTTTAGTTGAAGCGTAA (targeted gene: APAF1)” to “GGCACAACACTAATTACCATT (targeted gene: PROK2)”, the “shRNA barcode abundance ratio t end/t zero (log2)” value falls from 0.303 to 0.0935.

For “GCACCTTGTTGTCATGAACTT (targeted gene: DAD1)”, the “shRNA barcode abundance ratio t end/t zero (log2)” value was 0.0822 and 0.0853.
With “GCAAGCAGTCTTGTGAGTTAA (targeted gene: RASA1)” the “shRNA barcode abundance ratio t end/t zero (log2)” value was -0.169 and -0.167.

Reference: the supplement of paper PMC2824726
